Where “and” joins values, the source holds several entries; their conditions need not be identical. Identical values can stand only once.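 Cells were grown in 96-well plates and exposed to each compound for 48 hours at five concentrations; endpoints were interpolated linearly between bracketing concentrations, or set to the highest concentration if not reached. GI50 is the concentration that inhibits growth by half. TGI: total growth inhibition.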

The first test has as its system SK-MEL-2 melanoma. In words: NCI anticancer screen, dose series, 48 h.
Compound `CC1(C)CC(/C=C2/OC(=O)c3ccccc32)=C(C#N)C(=O)O1` had a TGI greater than 100 µM.

For the compound `Cc1nc2c(nc1Cl)nc(Oc1ccc(Cl)cc1)c1ccccc12`, the TGI is greater than 100 µM.

The compound `CC(=O)Nc1ccccc1Sc1ccccc1` displayed a TGI greater than 100 µM.

For the compound `COC(=O)C[C@H]1CCC2(OCCO2)[C@]1(C)C(=O)OC`, the TGI was greater than 100 µM.

`CCCCCCCCCC[C@@H](O)[C@@H]1CC[C@H]([C@H]2CC[C@@H]([C@@H](O)CCCCCCCCCC[C@H]3CC(CC(C)=O)C(=O)O3)O2)O1` (some centres not stated) had a TGI of 30.7 µM.

Regarding `C=C(CN1CCc2ccccc2C1)c1ccc(C(=O)Nc2cnccn2)cc1`, the GI50 was 46.6 µM and the TGI is greater than 100 µM.

Consider `CCOc1ccc2c(c1)[n+]([O-])c(S(=O)(=O)c1ccc(C)cc1)c(N)[n+]2[O-]`, for which the TGI is greater than 100 µM.

The compound `CC12CC[C@@H](C(C)(C)O)C1[C@@H](O)CC1(C)C2CCC2[C@@]3(C)CC[C@H](O)C(C)(C)C3C(O)C[C@]21C` (some centres not stated) displayed a TGI of 36.8 µM.

Regarding `O=C(CI)NC1Oc2ccccc2-c2oc(=O)c(-c3ccccc3)cc21` (configuration not stated), the GI50 was 2.17 µM and the TGI came out at 5.43 µM.

`CCOC(=O)NC(=O)c1cn(C2OC(COC(=O)CCCCCCCCC(=O)OCC3OC(n4cc(C(=O)NC(=O)OCC)c(=O)[nH]c4=O)C(O)C3O)C(O)C2O)c(=O)[nH]c1=O` (configuration not stated) showed a TGI greater than 100 µM.

In the case of `Cc1ccc(C)c(NC(=O)CC/C(=N\NC(=O)C(=O)NN)C(C)C(=O)c2ccc(O)cc2)c1` (configuration not stated), the TGI is greater than 100 µM.

Compound `N=C1CSC2=NC3=C(CCC/C3=C\c3ccccc3)C(c3ccccc3)N12` (configuration not stated) displayed a TGI of 5.56 µM.

`COc1ccc(CNc2cc(OC)c(OC)c(OC)c2)cc1` came in with a TGI greater than 100 µM.

For `CCOC(=O)/C=C(/C(=O)OCC)n1cc(Cl)c(=O)n(CC(=O)OCC)c1=O`, the GI50 is 26.2 µM; the TGI is 11.2 µM and 46.3 µM.

As for `COc1ccccc1C1C(C(=O)Nc2ccccc2)=C(C)NC(C)=C1C(=O)Nc1ccccc1`, the TGI is greater than 100 µM.

On to `OCc1ccc2[n+](c1)CCC1c3ccccc3NC21` (configuration not stated), for which the TGI was greater than 300 µM.

Consider `CCCCCCCCCCCC(=O)CC(=O)c1c(O)cccc1O`, for which the TGI is 31 µM.

Compound `CN(C(=O)C12C3C4C1C1C2C3C41C(=O)C(C)(C)C)C(C)(C)C` (configuration not stated) gave a TGI greater than 100 µM.

Take `Cc1cc2c(cc1C)[n+](=O)c(C(=O)CC(=O)C(=O)Nc1c(C(C)C)cccc1C(C)C)c(C)n2[O-]`: the TGI was greater than 100 µM.

`COc1ccc2cc1Oc1ccc(cc1)CC1c3cc(c(OC)cc3CCN1C)Oc1c3c(cc4c1C(C2)N(C)CC4)OCO3` (configuration not stated) registered a TGI of 15.8 µM.

As for `Cc1ccc(-c2c3c([nH]c(=O)c2C#N)-c2cc(F)ccc2OC3)cc1`, the GI50 was 55.4 µM and the TGI is 98.4 µM.

For `COc1ccc(OC)c(NC(=O)C(=O)C(C(C)=O)c2nc3ccc(Cl)cc3[nH]c2=O)c1` (configuration not stated), the TGI was greater than 50 µM.

The compound `N#CC(C(=N/O)/C(=N/O)C(C#N)c1ccc(Cl)cc1)c1ccc(Cl)cc1` (configuration not stated) showed a TGI greater than 100 µM.

A further test deals with HT29 colon. In words: NCI anticancer screen, dose series, 48 h.
Turning to `CC1(Cl)C(=O)NC(=O)N(C2CC(N=[N+]=[N-])C(CO)O2)C1N=[N+]=[N-]` (configuration not stated), the TGI is greater than 100 µM.

In turn, `COc1ccc2ccc3c(c2c1)CN1CCc2cc(OC)c(OC)cc2C1C3` (configuration not stated) had a TGI greater than 100 µM.

With `OCCC1(O)CCC(O)CC1` (configuration not stated), the TGI is greater than 100 µM.

In the case of `CCCCNC1=C(C(=O)OCC)C(=O)CO1`, the TGI was greater than 100 µM.

Regarding `CC(C)CC(=O)[O-].CC(C)CC(=O)[O-].N.N.N.N.[Co+3].[O-][Cl+3]([O-])([O-])[O-]`, the GI50 was greater than 100 µM and the TGI is greater than 100 µM.

As to `COc1cc(C2c3cc4c(cc3C(NCC(O)CO)C3COC(=O)[C@H]23)OCO4)cc(OC)c1OC` (some centres not stated), the TGI is greater than 100 µM.

`COC(=O)CC(=O)C[P+](c1ccccc1)(c1ccccc1)c1ccccc1` came in with a TGI greater than 218 µM.

Compound `CCCCN(CCCC)C(=O)C(=O)C(C#N)c1ccc(C)cc1` (configuration not stated) displayed a TGI greater than 100 µM.

Compound `Cc1ccc(S(=O)(=O)C(CC(=O)N2CCCC2)C(=O)c2ccccc2)cc1` (configuration not stated) displayed a TGI greater than 100 µM.

Take `CC1(C)CC(/C=C2/OC(=O)c3ccccc32)=C(C#N)C(=O)O1`: the TGI is greater than 100 µM.

The compound `Cc1nc2c(nc1Cl)nc(Oc1ccc(Cl)cc1)c1ccccc12` returned a TGI greater than 100 µM.

The compound `CC(=O)Nc1ccccc1Sc1ccccc1` showed a TGI greater than 100 µM.

In turn, `COC(=O)C[C@H]1CCC2(OCCO2)[C@]1(C)C(=O)OC` registered a TGI greater than 100 µM.

`CCCCCCCCCC[C@@H](O)[C@@H]1CC[C@H]([C@H]2CC[C@@H]([C@@H](O)CCCCCCCCCC[C@H]3CC(CC(C)=O)C(=O)O3)O2)O1` (some centres not stated) came in with a TGI of 34.6 µM.

`C=C(CN1CCc2ccccc2C1)c1ccc(C(=O)Nc2cnccn2)cc1`: the GI50 is 24.1 µM and the TGI is 59.5 µM.

`CCOc1ccc2c(c1)[n+]([O-])c(S(=O)(=O)c1ccc(C)cc1)c(N)[n+]2[O-]`: the TGI was greater than 100 µM.

With `CC12CC[C@@H](C(C)(C)O)C1[C@@H](O)CC1(C)C2CCC2[C@@]3(C)CC[C@H](O)C(C)(C)C3C(O)C[C@]21C` (some centres not stated), the TGI was found to be 31.1 µM.

With `CCOC(=O)NC(=O)c1cn(C2OC(COC(=O)CCCCCCCCC(=O)OCC3OC(n4cc(C(=O)NC(=O)OCC)c(=O)[nH]c4=O)C(O)C3O)C(O)C2O)c(=O)[nH]c1=O` (configuration not stated), the TGI is greater than 100 µM.

Compound `Cc1ccc(C)c(NC(=O)CC/C(=N\NC(=O)C(=O)NN)C(C)C(=O)c2ccc(O)cc2)c1` (configuration not stated) came in with a TGI greater than 100 µM.

For `N=C1CSC2=NC3=C(CCC/C3=C\c3ccccc3)C(c3ccccc3)N12` (configuration not stated), the TGI turned out to be 11.5 µM.

In the case of `COc1ccc(CNc2cc(OC)c(OC)c(OC)c2)cc1`, the TGI is greater than 100 µM.

As for `CCOC(=O)/C=C(/C(=O)OCC)n1cc(Cl)c(=O)n(CC(=O)OCC)c1=O`, the GI50 is 22.5 µM; the TGI was 9.38 µM and 52 µM.

Take `COc1ccccc1C1C(C(=O)Nc2ccccc2)=C(C)NC(C)=C1C(=O)Nc1ccccc1`: the TGI was greater than 100 µM.

`OCc1ccc2[n+](c1)CCC1c3ccccc3NC21` (configuration not stated) showed a TGI greater than 300 µM.

`CCCCCCCCCCCC(=O)CC(=O)c1c(O)cccc1O` had a TGI of 33.7 µM.

In turn, `CN(C(=O)C12C3C4C1C1C2C3C41C(=O)C(C)(C)C)C(C)(C)C` (configuration not stated) had a TGI greater than 100 µM.

Turning to `Cc1cc2c(cc1C)[n+](=O)c(C(=O)CC(=O)C(=O)Nc1c(C(C)C)cccc1C(C)C)c(C)n2[O-]`, the TGI is greater than 100 µM.

`COc1ccc2cc1Oc1ccc(cc1)CC1c3cc(c(OC)cc3CCN1C)Oc1c3c(cc4c1C(C2)N(C)CC4)OCO3` (configuration not stated) had a TGI of 8.25 µM.

On to `Cc1ccc(-c2c3c([nH]c(=O)c2C#N)-c2cc(F)ccc2OC3)cc1`, for which the GI50 was greater than 100 µM and the TGI is greater than 100 µM.

Turning to `COc1ccc(OC)c(NC(=O)C(=O)C(C(C)=O)c2nc3ccc(Cl)cc3[nH]c2=O)c1` (configuration not stated), the TGI is greater than 50 µM.

As for `N#CC(C(=N/O)/C(=N/O)C(C#N)c1ccc(Cl)cc1)c1ccc(Cl)cc1` (configuration not stated), the TGI is greater than 100 µM.

Source of the values: PubChem BioAssay (NCI).
